Laboratory results taken from publication PMC5845537 (Frontiers in Pharmacology, 2018).

How the values were obtained:
C57BL/6NCrlBr mice = assay: Mouse object placement (OP) task after subchronic PCP; assay type: in vivo
Procedure: Subchronic PCP treatment: The subPCP administration regimen used in rats was conducted as described in ([Goetghebeur and Dias, 2009]), which is a reliable method for inducing deficits in our hands. Rats in the subPCP experiments received injections of 5 mg/mL PCP or vehicle (saline) s.c. at a 1 mL/kg injection volume twice per day for 7 days. […] The mouse subPCP regimen was conducted as described in [Pedersen et al. (2014)]. Briefly, mice received vehicle or PCP (1.3 mg/mL concentration, 10 mL/kg injection volume) s.c once per day for 14 days followed by a 7-day washout prior to experimentation.
Object placement and OR tasks in mice were executed in Perspex boxes measuring 40 × 40 cm with dark gray walls and a white floor. The tests were conducted during the light phase, yet in a subdued light (≈20 lux) and with the radio turned on in the background. Each trial was recorder by a camera mounted above the test arenas and later scored manually.
Objects in the mouse OP task consisted of small stork sculptures made of plaster, which were 11.5 cm in height, with a roughly rectangle-shaped base 7.5 cm in length and 4.8 cm in width. For the mouse OR task, objects consisted of (1) small cylindrical pepper mills (purchased empty, having never contained spice) made of clear plastic (10.5 cm in height, 4.5 cm diameter), and (2) small salt shakers made of light blue glass (again, purchased empty; 11.5 cm in height, 4.5 cm diameter). […]
The primary dependent measure for the OR and object placement tasks was a novel object or novel placement preference score, which were calculated from raw object investigation times using the following equation: Preference Score = ITN/(ITN + ITF)^∗100, where ITN represents the investigation time for the novel object or placement, and ITF represents the investigation for the familiar object or placement. Total exploration times from the information and test trials were analyzed for OP and OR experiments. Preference score and total exploration time data was analyzed for treatment group differences using a one-way between-subjects ANOVA. […]

GABAB receptor = molecular target: T1, GABAB receptor (Rattus norvegicus, UniProt Q9Z0U4); assay: Ex vivo autoradiography, GABAB receptor saturation binding ([3H]CGP54626), medial prefrontal cortex
T1 construct: 12 μm coronal sections were collected from an area ranging from approximately +4.2 mm to +2.3 mm anterior to Bregma; from tissue; host or cells: rat brain cryosections, medial prefrontal cortex (prelimbic and infralimbic)
Description: Rats used in ex vivo autoradiography (EVA) experiments were randomly assigned to one of four experimental groups characterized by either subchronic saline or PCP (as described above) along with either vehicle or vortioxetine-infused food (1.8 g vortioxetine/kg food weight, as described in the attentional set shifting task). On day 8 of PCP withdrawal, rats were anesthetized using CO2 and killed by decapitation. Brains were quickly and gently removed from the skull, flash frozen on powdered dry ice, and stored at -20°C until sectioning. Later, 12 μm coronal sections were collected from an area ranging from approximately +4.2 mm to +2.3 mm anterior to Bregma ([Paxinos and Watson, 1998]) using a cryostat (MicroM, Germany) and were thaw-mounted on glass microscope slides. This range of coronal slices was chosen in order to study the prelimbic and infralimbic subregions of the medial prefrontal cortex, given the importance of these regions in tests of executive function such as the attentional set shifting task ([Ng et al., 2007]). After the tissue mounted on the microscope slides had dried thoroughly (in order to reduce damage from freezing), slides were packed into slide boxes with desiccator pellets, and stored at -20°C for use in EVA saturation binding and competition experiments.
Each of the EVA procedures used in this study are variations on a similar theme. On the day of an experiment, slide-boxes were defrosted under a constant stream of air at room temperature until the boxes were dry and equilibrated with the environment in terms of temperature. This step was undertaken in order to ensure brain tissue was not damaged by frosting due to a sudden change in humidity. Prior to any binding experiments, slides were preincubated in the appropriate preincubation buffer and dried at room temperature. Subsequently, tissue was incubated in an assay buffer containing a radioligand appropriate for the receptor of interest, then rinsed in assay buffer, and dried overnight in a vacuum desiccator. Specific information on the contents of the preincubation buffers, assay buffers and other assay conditions are listed in Table 2. Finally, slides were opposed to a tritium-sensitive phosphor screen (Fuji imaging plate, GE Healthcare, Pittsburgh, PA, United States) for 5 days before being read in a phosphorimager (Typhoon FLA7000, GE Healthcare). Analysis methods are listed below under statistical analyses.
In saturation binding experiments, the concentration of the relevant radioligand in the assay buffer was systematically varied in order to determine the KD and Bmax of the receptor in question. At each radioligand concentration, the non-specific binding was determined on a separate slide by including a high concentration of a non-radioactive competitor ligand in the assay buffer along with the radioligand. For GABAA receptor saturation binding experiments, [^3H]muscimol was examined in quarter log steps ranging from 0.56 to 300 nM. For GABAB receptor saturation binding experiments, [^3H]CGP54626 was examined in quarter log steps ranging from 0.17 to 100 nM.
For saturation binding studies, the primary dependent measures were pKD and Bmax. First, a standard curve was generated by measuring optical intensity from a slide of tritium standards (American Radiolabeled Chemicals, St. Louis, MO, United States) included in the slide cassette during exposure. A linear regression was performed to determine the relationship between intensity and bound radioactivity (measured on the standards in units of μCi/g). Next, average intensity values from the non-specific bound condition for each concentration of radioligand was subtracted from intensity values from the total bound condition to produce a measure of specific binding for each radioligand concentration. These optical intensity values were transformed into bound radioactivity (expressed as nCi/mg) measurements by interpolation from the standard curve noted above. […]

T1 sequence (Q9Z0U4 17-960 limits assumed): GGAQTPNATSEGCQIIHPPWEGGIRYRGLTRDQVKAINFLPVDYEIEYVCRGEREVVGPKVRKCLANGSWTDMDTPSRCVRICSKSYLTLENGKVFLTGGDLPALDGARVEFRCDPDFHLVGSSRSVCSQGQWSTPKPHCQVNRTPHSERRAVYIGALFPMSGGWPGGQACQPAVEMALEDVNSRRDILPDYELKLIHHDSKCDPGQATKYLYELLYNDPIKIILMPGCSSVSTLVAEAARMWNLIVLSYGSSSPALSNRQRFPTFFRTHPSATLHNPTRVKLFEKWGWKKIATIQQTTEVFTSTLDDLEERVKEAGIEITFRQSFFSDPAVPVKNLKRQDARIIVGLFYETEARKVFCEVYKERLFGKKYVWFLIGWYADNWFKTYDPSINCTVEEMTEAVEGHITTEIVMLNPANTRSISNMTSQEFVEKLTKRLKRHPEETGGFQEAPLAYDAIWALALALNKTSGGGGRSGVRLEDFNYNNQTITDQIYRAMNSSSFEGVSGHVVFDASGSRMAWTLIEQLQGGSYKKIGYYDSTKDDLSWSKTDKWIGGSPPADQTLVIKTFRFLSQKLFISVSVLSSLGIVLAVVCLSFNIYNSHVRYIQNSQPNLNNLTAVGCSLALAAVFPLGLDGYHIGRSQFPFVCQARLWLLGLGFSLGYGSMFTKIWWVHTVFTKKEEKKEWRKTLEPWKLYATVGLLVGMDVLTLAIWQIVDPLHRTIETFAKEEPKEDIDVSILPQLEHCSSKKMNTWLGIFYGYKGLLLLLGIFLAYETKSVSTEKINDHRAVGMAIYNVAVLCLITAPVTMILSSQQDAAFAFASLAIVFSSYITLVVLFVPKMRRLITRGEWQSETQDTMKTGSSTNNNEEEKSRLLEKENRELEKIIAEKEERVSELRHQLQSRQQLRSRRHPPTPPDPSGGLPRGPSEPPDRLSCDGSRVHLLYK
T1 sequence (O88871 41-940 partner): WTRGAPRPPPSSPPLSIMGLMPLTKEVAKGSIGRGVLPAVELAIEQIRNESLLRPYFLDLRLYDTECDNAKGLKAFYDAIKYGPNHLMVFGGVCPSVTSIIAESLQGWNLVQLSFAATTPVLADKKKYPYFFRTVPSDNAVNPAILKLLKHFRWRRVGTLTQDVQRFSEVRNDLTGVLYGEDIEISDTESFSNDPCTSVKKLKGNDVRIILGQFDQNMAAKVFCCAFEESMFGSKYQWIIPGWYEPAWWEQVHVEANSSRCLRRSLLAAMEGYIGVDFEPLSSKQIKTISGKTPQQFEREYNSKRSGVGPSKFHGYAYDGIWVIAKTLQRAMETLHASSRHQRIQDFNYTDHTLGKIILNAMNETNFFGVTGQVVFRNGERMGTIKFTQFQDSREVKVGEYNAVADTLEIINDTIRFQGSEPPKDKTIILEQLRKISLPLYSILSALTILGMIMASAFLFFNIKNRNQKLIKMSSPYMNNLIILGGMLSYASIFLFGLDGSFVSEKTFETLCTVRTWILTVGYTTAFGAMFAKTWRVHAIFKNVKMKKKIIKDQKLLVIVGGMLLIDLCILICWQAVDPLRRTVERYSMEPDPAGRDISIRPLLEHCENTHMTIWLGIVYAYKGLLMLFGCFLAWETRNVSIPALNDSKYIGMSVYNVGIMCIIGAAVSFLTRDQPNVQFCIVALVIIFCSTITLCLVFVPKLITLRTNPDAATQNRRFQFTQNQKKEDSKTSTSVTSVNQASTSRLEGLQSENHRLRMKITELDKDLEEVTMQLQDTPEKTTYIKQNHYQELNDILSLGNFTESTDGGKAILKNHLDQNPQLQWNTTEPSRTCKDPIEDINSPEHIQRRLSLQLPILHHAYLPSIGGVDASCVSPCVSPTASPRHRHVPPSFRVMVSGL

Structure (SMILES)	novel placement preference score (C57BL/6NCrlBr mice; subPCP/vehicle vs vehicle/vehicle mice, p < 0.01)	effect of treatment on [3H]CGP54626 Bmax (GABAB receptor) (GABAB receptor; subPCP vs saline/vehicle group, p < 0.05)	attenuation of subPCP-induced object placement task impairment (C57BL/6NCrlBr mice; subPCP-treated mice, 10 mg/kg s.c. bolus plus seven days 0.6 g/kg chow, p < 0.05)	object placement task performance vs vehicle/vehicle (C57BL/6NCrlBr mice; vortioxetine/vehicle group, mice without PCP)	[3H]CGP54626 Bmax (GABAB receptor), PCP/vortioxetine vs PCP/vehicle (GABAB receptor; subchronic vortioxetine combined with subPCP)
Cl.c1ccc(C2(N3CCCCC3)CCCCC2)cc1 [PCP, 1-(1-phenylcyclohexyl)-piperidine hydrochloride]	significantly reduced novel placement preference scores	significant reductions			
Cc1ccc(Sc2ccccc2N2CCNCC2)c(C)c1 [vortioxetine]			significantly attenuated	did not perform significantly better	no significant differences
